According to patent publication US6777427B2, “Tetrahydroquinoline compounds” (priority 2000, dated 2004):

Key:
[1] = tested on: Orchiectomized (ORX) Rats; assay: Action of increasing prostate weight and bone mass in orchiectomized (ORX) rats, 4 weeks; type: in vivo, rat; conditions: for Bone mineral density / Prostate weight: ORX SD rats, s.c. once daily, 5 days weekly, 4 weeks, DHT 10 mg/kg, Ex. 23 30 mg/kg, Mean ± SD; for Bone mineral density: right femur
Description: Orchiectomy was performed in 12-week-old male SD rats. […] In an ORX control group (Vehicle), dimethyl sulfoxide diluted with olive oil was used for the test. […] On the next day after final administration, the wet weight of the ventral prostate was measured to evaluate the AR agonistic effect of the compound of the present invention. On the next day following final administration, moreover, the right femur was removed, and fixed overnight in a 10% neutrally buffered formalin solution.

[2] = tested on: Orchiectomized (ORX) Rats; assay: Action of increasing prostate weight in orchiectomized (ORX) rats, 8 days; type: in vivo, rat; conditions: for Weight of prostate: ORX SD rats, s.c. once daily for 8 days, DHT 10 mg/kg, Ex. 23 30 mg/kg, ventral prostate wet weight, Mean ± SD
Description: Testes were removed from 8-week-old male SD rats. […] In an ORX control group (Vehicle), dimethyl sulfoxide diluted with olive oil was used for the test. […] On the next day after final administration, the wet weight of the ventral prostate was measured to evaluate the AR agonistic effect of the compound of the present invention.

[3] = tested on: Ovariectomized (OVX) Rats; assay: Action of increasing bone mass in ovariectomized (OVX) rats, 8 weeks; type: in vivo, rat; conditions: for Bone mineral density: OVX female SD rats, right femur, s.c. once daily, 5 days weekly, 8 weeks from 4 weeks postoperatively, DHT 10 mg/kg, Ex. 23 30 mg/kg, Mean ± SD
Description: Action of Increasing Bone Mass in Ovariectomized (OVX) Rats
Ovariectomy was performed in 12-week-old female SD rats. […] In an OVX control group (Vehicle), dimethyl sulfoxide diluted with olive oil was used for the test. […] On the next day after final administration, the right femur was removed, and fixed overnight in a 10% neutrally buffered formalin solution.

[4] = molecular target: T1, Rat Androgen Receptors (Rat AR) (Rattus norvegicus, UniProt P15207); assay: Test for competitive binding to rat androgen receptors (3H-testosterone displacement, prostate AR fraction); conditions: RBA=100×(IC50 of hydroxyflutamide)/(IC50 of the compound)
T1 construct: from tissue; host or cells: prostate of orchiectomized 11-week-old male SD rats (100,000 x g supernatant of the homogenate)
T1 sequence (P15207 1-902): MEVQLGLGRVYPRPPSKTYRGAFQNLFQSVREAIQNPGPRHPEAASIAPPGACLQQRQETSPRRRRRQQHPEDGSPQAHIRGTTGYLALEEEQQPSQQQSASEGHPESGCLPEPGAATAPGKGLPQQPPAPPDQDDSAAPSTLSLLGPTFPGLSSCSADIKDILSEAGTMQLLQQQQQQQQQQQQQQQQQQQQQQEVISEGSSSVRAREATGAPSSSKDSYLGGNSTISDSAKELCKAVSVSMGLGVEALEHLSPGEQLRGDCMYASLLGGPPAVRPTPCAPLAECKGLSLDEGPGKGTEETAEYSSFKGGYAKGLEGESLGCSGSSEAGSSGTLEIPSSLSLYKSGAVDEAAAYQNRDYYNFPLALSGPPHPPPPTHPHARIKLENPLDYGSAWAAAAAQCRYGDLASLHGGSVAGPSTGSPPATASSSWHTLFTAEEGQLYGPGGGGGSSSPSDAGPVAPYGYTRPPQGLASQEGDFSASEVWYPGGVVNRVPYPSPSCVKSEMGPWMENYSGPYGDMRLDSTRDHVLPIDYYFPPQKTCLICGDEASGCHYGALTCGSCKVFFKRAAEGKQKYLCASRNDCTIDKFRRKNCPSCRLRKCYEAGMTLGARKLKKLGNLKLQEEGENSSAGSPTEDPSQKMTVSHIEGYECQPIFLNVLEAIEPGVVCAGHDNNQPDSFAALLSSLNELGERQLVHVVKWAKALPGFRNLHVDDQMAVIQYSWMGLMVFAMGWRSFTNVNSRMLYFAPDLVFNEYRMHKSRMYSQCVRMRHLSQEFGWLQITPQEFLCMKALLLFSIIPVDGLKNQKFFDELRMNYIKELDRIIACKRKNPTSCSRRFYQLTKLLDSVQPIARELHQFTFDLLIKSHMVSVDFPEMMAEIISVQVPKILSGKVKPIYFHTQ
Description: Test for Competitive Binding to Rat Androgen Receptors (Rat AR)
Preparation of rat AR fraction: Prostates were harvested into ice-cooled ET buffer (10 mM Tris, 1 mM EDTA, 5 mM DTT, 10 mM sodium molybdate, pH 7.4) 3 days after orchiectomy in 11-week-old male SD rats. The prostate was finely cut, and ET buffer was added, whereafter the mixture was homogenized using a homogenizer. The homogenate was ultracentrifuged (100,000×g, 60 min, 4° C.), and the supernatant was used as a rat AR fraction (hereinafter referred to as ARF).
Binding test: ^3H-testosterone (hereinafter referred to as ^3H-T) was diluted with ET buffer. Dihydrotestosterone (DHT) was prepared so as to have a concentration (final concentration 1 μM) 400 times the maximum concentration of ^3H-T (2.5 nM). The ^3H-T solution was added to a 1.5 ml tube containing DHT, no DHT, or the test compound with a varying concentration. Further, 200 μg ARF was added to adjust the final volume to 100 μl. The mixture was incubated for 2 hours at 4° C., and then 300 μl of a 0.05% dextran T70-1.0% activated carbon solution was added. The mixture was further incubated for 15 minutes in ice to remove the free ^3H-T. After centrifugation (4° C., 2,500 rpm, 5 min), 275 μl of the supernatant was harvested into a liquid scintillation vial, and 2 ml of clear-sol was added. The mixture was stirred, allowed to stand, and measured for ^3H radioactivity with a liquid scintillation counter. […]
a: Radioactivity of the sample incorporating the compound of the present invention (^3H-T+compound) b: Radioactivity of the sample free from the compound of the present invention (only ^3H-T: amount of total binding) c: Radioactivity of the sample incorporating DHT (^3H-T+DHT: amount of nonspecific binding) The relative binding inhibition rate (RBA: Relative Binding Affinity) was obtained from the following equation (Endocrinology 138, 863-870, 1997): […]

male rats = assay: AR antagonistic effect: inhibition of testosterone propionate-induced prostate weight increase; type: in vivo, rat; conditions: suggested by a Test Example; no data given
Description: Testes were removed from male rats. From 5 days postoperatively, testosterone propionate and the compound of the present invention were simultaneously administered once daily for one consecutive week by the subcutaneous route. On the next day after final administration, the wet weight of the ventral prostate was measured to evaluate the AR antagonistic effect of the compound of the present invention based on its inhibitory action on testosterone propionate-induced prostate weight increase.

SMILES: C[C@]12CCC(=O)C[C@@H]1CC[C@@H]1[C@@H]2CC[C@]2(C)[C@@H](O)CC[C@@H]12 [DHT, dihydrotestosterone, reference compound]
- Bone mineral density [1]: 130 ± 7 mg/cm^2
- Prostate weight [1]: 150 ± 14 mg/body weight 100 g
- Weight of prostate [2]: 68 ± 16 mg/body weight (100 g)
- Bone mineral density [3]: 120.8 ± 4.4 mg/cm^2

SMILES: CC(=O)OCC(C)(C)C1CC(N(C)C)c2cc([N+](=O)[O-])ccc2N1 (centres unmarked) [Example 9, Acetic acid 2-(4-dimethylamino-6-nitro-1,2,3,4-tetrahydroquinolin-2-yl)-2-methyl-propyl ester]
- RBA (Relative Binding Affinity) [4]: 79

SMILES: CN(C)C1CC(C(C)(C)COC(=O)c2ccc(F)cc2)Nc2ccc([N+](=O)[O-])cc21 (centres unmarked) [Example 11, 4-Fluorobenzoic acid 2-(4-dimethylamino-6-nitro-1,2,3,4-tetrahydroquinolin-2-yl)-2-methyl-propyl ester]
- RBA (Relative Binding Affinity) [4]: 98

SMILES: CN(C)C1CC(C(C)(C)CO)Nc2ccc([N+](=O)[O-])cc21 (centres unmarked) [Example 23, 2-(4-dimethylamino-6-nitro-1,2,3,4-tetrahydroquinolin-2-yl)-2-methylpropan-1-ol]
- Bone mineral density [1]: 134 ± 6 mg/cm^2
- Prostate weight [1]: 78 ± 10 mg/body weight 100 g
- Effect on atrophied prostate (in words) ([1]; ORX rats, administered for 4 weeks, 30 mg/kg s.c.): restored the atrophied prostate up to the level of the normal control
- Effect on bone mineral density (in words) ([1]; ORX rats, administered for 4 weeks, 30 mg/kg s.c., vs control group): significantly increased the decreased bone mineral density
- Weight of prostate [2]: 52 ± 12 mg/body weight (100 g)
- Effect on prostate weight (in words) ([2]; ORX rats, consecutively administered for 8 days, 30 mg/kg s.c.): significantly increased prostate weights in comparison with the ORX control
- Bone mineral density [3]: 120.9 ± 3.9 mg/cm^2
- Effect on bone mineral density (in words) ([3]; OVX rats, administered for 8 weeks, 30 mg/kg s.c.): significantly increased the bone mineral density

SMILES: CC(C)(CO)C1CC(NCc2ccccc2)c2cc([N+](=O)[O-])ccc2N1 (centres unmarked) [Example 30, 2-(4-Benzylamino-6-nitro-1,2,3,4-tetrahydroquinolin-2-yl)-2-methylpropan-1-ol]
- RBA (Relative Binding Affinity) [4]: 370

SMILES: CCCN(CCC)C1CC(C(C)(C)CO)Nc2ccc([N+](=O)[O-])cc21 (centres unmarked) [Example 33, 2-(4-Di-n-propylamino-6-nitro-1,2,3,4-tetrahydroquinolin-2-yl)-2-methylpropan-1-ol]
- AR antagonistic effect (in words) (male rats): AR antagonist

SMILES: CC(C)(O)C(=O)Nc1ccc([N+](=O)[O-])c(C(F)(F)F)c1 [Hydroxyflutamide, reference compound]
- RBA (Relative Binding Affinity) [4]: 100
